# Source: ChEMBL document CHEMBL1122167, “Syntheses and adrenergic agonist properties of ring-fluorinated isoproterenols” (J Med Chem, 1982)
# Assays:
# Adrenergic receptor beta [1] = target: Adrenergic receptor beta (Homo sapiens, UniProt P08588+P07550+P13945)
# Description: Evaluated for Beta adrenergic receptor agonistic property in isolated guinea pig atria
# [2] = target: Adrenergic receptor alpha
# Adrenergic receptor beta [3] = target: Adrenergic receptor beta (Rattus norvegicus, UniProt P18090+P10608+P26255)
Structure (SMILES),EC50 (Adrenergic receptor beta [1]),IC50 [2],IC50 (Adrenergic receptor beta [3])
CC(C)NCC(O)c1cc(O)c(O)c(F)c1 (stereo not given),0.02 µM,55 µM,0.6 µM
CC(C)NCC(O)c1ccc(O)c(O)c1F (stereo not given),0.01 µM,59 µM,0.5 µM
CC(C)NCC(O)c1cc(O)c(O)cc1F (stereo not given),30 µM,80 µM,5.5 µM
CC(C)NCC(O)c1ccc(O)c(O)c1 (racemic) [ISOPROTERENOL],–,> 100 µM,–
